Results as given in patent US20090215884A1, “METHOD FOR WOUND HEALING” (priority 2005, published 2009).

How the values were obtained:
[1] = test system: neutrophils; assay: Cytokine production by PEP005-treated human neutrophils; assay type: cell-based; details: 6 h, supernatant
Experimental: Cytokine production by PEP005-treated human cells Confluent cultures of Me10538 cells, keratinocytes, fibroblasts and neutrophils were incubated for 6 h in the absence or presence of PEP005 (1-100 ng/ml). The supernatants were harvested and analyzed for the presence of the following cytokines; TNF-α, IL-6 and IL-8 using a multiplex detection kit (Biosource International, Nivelles, Belgium). Units of detected proteins are pg/ml.

[2] = test system: PBMC; assay: Cytokine production of stimulated PBMC (Bead Suspension Assay); assay type: cell-based, human; details: 24 h
Experimental: PEP005 was provided as a dry powder. A stock solution of 23.55 mM was prepared in DMSO and aliquots were stored at −20° C. An aliquot of the stock solution was thawed on the day of use and stored at room temperature prior to and during dosing. Intermediate dilution steps were carried out using DMEM cell culture medium.
For the isolation of PBMC freshly drawn human blood treated with Li-Heparin as an anti-coagulant was used. Cells were diluted with three volumes of CliniMACS PBS/EDTA Buffer (Miltenyi, Bergisch Gladbach), carefully layered over FicollPaque (Amersham Biosciences, Freiburg) in a conical tube and centrifuged at 400×g for 40 minutes at 20° C. in a swinging-bucket rotor without brake. The upper layer was aspirated, leaving the mononuclear cell layer undisturbed at the interphase. The interphase cells (lymphocytes, monocytes and thrombocytes) were carefully transferred into a new conical tube. The conical tube was filled with CliniMACS PBS/EDTA Buffer and centrifuged at 300×g for 10 minutes at 20° C. The supernatant was completely removed. For removal of platelets the cell pellet was resuspended in 50 ml of Buffer and centrifuged at 200×g for 10 minutes at 20° C. The supernatant was completely removed and the last washing step was repeated. Cells were resuspended in DMEMMedium (Invitrogen, Karlsruhe) and counted in a Neubauer-hemocytometer.
For the stimulation of PBMC 250.000 cells per well were seeded in a 96-well plate. PBMC of three different healthy donors were stimulated with PEP005 in three different concentrations (1, 10 and 100 nM) or LPS 1 μg/ml (Linaris, Wertheim-Bettingen), PMA 10 ng/ml (Sigma, Deisenhofen) and Ionomycin 1 μg/ml (Sigma, Deisenhofen), respectively. Cells were incubated at 37° C. and 5% CO^2 in a humidified atmosphere for 24 h.
In a typical Bead Suspension Assay a cytokine is captured from a supernatant with bead bound antibodies. The cytokine is quantified with a secondary antibody to complete a sandwich immunoassay. Cytokine concentrations are calculated with the help of a standard curve for each cytokine.
The cytokines IL-1β, IL-2, IL-6, IL-8 and TNF-α were quantitatively measured in the supernatant of the PBMC with a BioRad BioPlex System according to the manufacturer's intructions. All samples were measured in duplicates. All units of detected proteins are pg/ml.
To investigate the immunostimulating effects of PEP005, PBMCs from three different healthy donors were exposed for 24 h to PEP005 at concentrations of 1, 10 and 100 nM. The secretion of IL-1β, IL-2, IL-6, IL-8 and TNF-α into the supernatant was quantitatively measured by flow cytometry with the Bead Suspension Assays. The results are depicted in Tables 1.4-1.8.

[3] = PBMC donor three, PEP005 100 nM
[4] = PBMCs from the three donors, 1 nM PEP005

C/C=C(/C)C(=O)O[C@H]1C(C)=C[C@]23C(=O)[C@@H](C=C(CO)[C@@H](O)[C@]12O)[C@H]1[C@@H](C[C@H]3C)C1(C)C [PEP005, ingenol-3-angelate]
IL-8 ([1]; PEP005 1 ng/ml): 7089 ± 1293 pg/mL | IL-8 ([1]; PEP005 10 ng/ml): 2241 ± 684 pg/mL | IL-8 ([1]; PEP005 100 ng/ml): 617 ± 52 pg/mL | elevated IL-6 levels in PBMC supernatant (parenthetical, condition not stated) [2]: ~9 fold | IL-1β production ([2]; PBMC donor one, PEP005 1 nM): 94.49 pg/mL | IL-2 production ([2]; PBMC donor one, PEP005 1 nM): 82.68 pg/mL | IL-6 production ([2]; PBMC donor one, PEP005 1 nM): 320.61 pg/mL | IL-8 production ([2]; PBMC donor one, PEP005 1 nM): 13652.6 pg/mL | TNF-α production ([2]; PBMC donor one, PEP005 1 nM): 148.42 pg/mL | IL-1β production ([2]; PBMC donor one, PEP005 10 nM): 61.62 pg/mL | IL-2 production ([2]; PBMC donor one, PEP005 10 nM): 60.3 pg/mL | IL-6 production ([2]; PBMC donor one, PEP005 10 nM): 216.09 pg/mL | IL-8 production ([2]; PBMC donor one, PEP005 10 nM): 9418.94 pg/mL | TNF-α production ([2]; PBMC donor one, PEP005 10 nM): 76.14 pg/mL | IL-1β production ([2]; PBMC donor one, PEP005 100 nM): 0 pg/mL | IL-2 production ([2]; PBMC donor one, PEP005 100 nM): 10.56 pg/mL | IL-6 production ([2]; PBMC donor one, PEP005 100 nM): 0 pg/mL | IL-8 production ([2]; PBMC donor one, PEP005 100 nM): 52.77 pg/mL | TNF-α production ([2]; PBMC donor one, PEP005 100 nM): 19.44 pg/mL | IL-1β production ([2]; PBMC donor three, PEP005 1 nM): 314.73 pg/mL | IL-2 production ([2]; PBMC donor three, PEP005 1 nM): 54.61 pg/mL | IL-6 production ([2]; PBMC donor three, PEP005 1 nM): 131.46 pg/mL | IL-8 production ([2]; PBMC donor three, PEP005 1 nM): 28029.68 pg/mL | TNF-α production ([2]; PBMC donor three, PEP005 1 nM): 130.99 pg/mL | IL-1β production ([2]; PBMC donor three, PEP005 10 nM): 173.33 pg/mL | IL-2 production ([2]; PBMC donor three, PEP005 10 nM): 31.53 pg/mL | IL-6 production ([2]; PBMC donor three, PEP005 10 nM): 61.66 pg/mL | IL-8 production ([2]; PBMC donor three, PEP005 10 nM): 11438.34 pg/mL | TNF-α production ([2]; PBMC donor three, PEP005 10 nM): 73.48 pg/mL | IL-1β production [2, 3]: 10.92 pg/mL | IL-2 production [2, 3]: 2 pg/mL | IL-6 production [2, 3]: 0 pg/mL | IL-8 production [2, 3]: 205.36 pg/mL | TNF-α production [2, 3]: 12.93 pg/mL | IL-1β production ([2]; PBMC donor two, PEP005 1 nM): 125.17 pg/mL | IL-2 production ([2]; PBMC donor two, PEP005 1 nM): 17.86 pg/mL | IL-6 production ([2]; PBMC donor two, PEP005 1 nM): 69.48 pg/mL | IL-8 production ([2]; PBMC donor two, PEP005 1 nM): 12148.42 pg/mL | TNF-α production ([2]; PBMC donor two, PEP005 1 nM): 90.72 pg/mL | IL-1β production ([2]; PBMC donor two, PEP005 10 nM): 98.04 pg/mL | IL-2 production ([2]; PBMC donor two, PEP005 10 nM): 19.47 pg/mL | IL-6 production ([2]; PBMC donor two, PEP005 10 nM): 73.97 pg/mL | IL-8 production ([2]; PBMC donor two, PEP005 10 nM): 18220.74 pg/mL | TNF-α production ([2]; PBMC donor two, PEP005 10 nM): 71.6 pg/mL | IL-1β production ([2]; PBMC donor two, PEP005 100 nM): 11.76 pg/mL | IL-2 production ([2]; PBMC donor two, PEP005 100 nM): 12.84 pg/mL | IL-6 production ([2]; PBMC donor two, PEP005 100 nM): 95.43 pg/mL | IL-8 production ([2]; PBMC donor two, PEP005 100 nM): 217.52 pg/mL | TNF-α production ([2]; PBMC donor two, PEP005 100 nM): 35.75 pg/mL | increase of IL-2 levels in the supernatant [2, 4]: 20 to 80 fold | mean increase of IL-2 levels in the supernatant [2, 4]: approximately 50 fold | increase of IL-6 levels in PBMC supernatants ([2]; PEP005 at 1 nM): 4 to 6 fold | increase of IL-8 levels in the supernatant of PBMCs ([2]; PEP005 at 1 nM): 3- to 5 fold | TNF-α levels in supernatants of PBMCs ([2]; all three donors, PEP005 at 1 nM): approximately 120 nM
